pKi: −log10 of the molar value. Counter-ions that a name gives are not always drawn. Like-named read-outs stand apart in the source and are kept apart here. Numbered stars: 1 amine (or outer) side, 2 acyl side, 3 side chain; on linkers, the order of the positions; unused ones are H or OH. Bridge positions count the residues as written; N and C are the ends. Square brackets hold non-standard residues; d marks the D form. Side chains are listed from the residue outwards. Peptide text beside a SMILES is read from it. * marks the point of attachment. Ethylenediamine = C(CN[*:2])N[*:1]; Hyp = O=C(O)[C@@H]1C[C@@H](O)CN1; hArg = N=C(N)NCCCC[C@H](N)C(=O)O; Phg = N[C@H](C(=O)O)c1ccccc1; CO = O=C([*:1])[*:2]; Bn = c1ccc(C*)cc1; Mpa = O=C(O)CCS
Tests used:
[1] = target: T1, fibroblast activation protein (FAP; rhFAP, SLIN-tagged hFAP) (Homo sapiens, UniProt Q12884); assay: biochemical
T1 sequence (Q12884 35-760): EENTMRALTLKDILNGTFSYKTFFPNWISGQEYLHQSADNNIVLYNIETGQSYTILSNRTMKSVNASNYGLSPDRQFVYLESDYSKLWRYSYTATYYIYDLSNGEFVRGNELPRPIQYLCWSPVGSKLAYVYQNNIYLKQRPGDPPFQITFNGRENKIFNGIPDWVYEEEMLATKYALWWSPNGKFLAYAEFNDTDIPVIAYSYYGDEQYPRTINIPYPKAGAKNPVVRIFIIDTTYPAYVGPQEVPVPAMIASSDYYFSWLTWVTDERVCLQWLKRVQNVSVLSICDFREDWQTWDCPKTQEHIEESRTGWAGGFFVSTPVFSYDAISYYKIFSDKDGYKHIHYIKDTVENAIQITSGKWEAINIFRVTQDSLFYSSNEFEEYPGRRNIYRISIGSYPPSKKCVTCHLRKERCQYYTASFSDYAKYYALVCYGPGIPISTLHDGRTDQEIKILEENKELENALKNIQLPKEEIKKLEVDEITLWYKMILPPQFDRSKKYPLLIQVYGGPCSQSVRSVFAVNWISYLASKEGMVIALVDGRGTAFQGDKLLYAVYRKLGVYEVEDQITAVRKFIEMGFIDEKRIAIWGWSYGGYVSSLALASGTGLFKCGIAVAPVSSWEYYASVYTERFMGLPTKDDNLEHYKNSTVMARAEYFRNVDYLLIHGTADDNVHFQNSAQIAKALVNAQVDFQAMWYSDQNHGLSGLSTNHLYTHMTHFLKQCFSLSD

[2] = target: T1, fibroblast activation protein (FAP; rhFAP, SLIN-tagged hFAP); conditions: 2 µM; inhibitor
[3] = target: T1, fibroblast activation protein (FAP; rhFAP, SLIN-tagged hFAP); assay: biochemical; remark: listed apart in the source

SMILES | pKi [1] | Relative inhibition (%), activity assay [2] [%] | pKi [3]
CC(=C(CCOC(=O)C(C)C)SSC(CCOC(=O)C(C)C)=C(C)N(C=O)Cc1cnc(C)nc1N)N(C=O)Cc1cnc(C)nc1N (stereo in doubt) [Sulbutiamine] | 5.24 | 15 | –
Nc1c2ccccc2nc2ccccc12 [9-Aminoacridine] | – | – | 4.91
CCN1CCN(Cc2ccc(Nc3ncc(F)c(-c4cc(F)c5nc(C)n(C(C)C)c5c4)n3)nc2)CC1 [Abemaciclib (methanesulfonate)] | 6.10 | 5 | –
COc1ccc(C(=O)N2CCCC2=O)cc1 [Aniracetam] | – | – | 4.39
CCOc1nc2cccc(C(=O)OCc3oc(=O)oc3C)c2n1Cc1ccc(-c2ccccc2-c2noc(=O)[nH]2)cc1 [Azilsartan medoxomil] | 5.41 | 11 | –
CCOC(=O)OC(C)OC(=O)[C@@H]1N2C(=O)[C@@H](NC(=O)[C@H](N)c3ccccc3)[C@H]2SC1(C)C (some centres unmarked) [Bacampicillin (hydrochloride)] | – | – | 4.90
O=c1cc(-c2ccccc2)oc2cc(O)c(O)c(O)c12 [Baicalein] | – | – | 4.43
Cn1c(CCCC(=O)O)nc2cc(N(CCCl)CCCl)ccc21 [Bendamustine] | – | – | 4.60
NC(=NCc1ccccc1)NC(=O)c1nc(Cl)c(N)nc1N [Benzamil (hydrochloride)] | – | – | 4.45
CCCC[C@H](NC(C)=O)C(=O)N[C@H]1CC(=O)NCCCC[C@@H](C(=O)O)NC(=O)[C@H](Cc2c[nH]c3ccccc23)NC(=O)[C@H](CCCN=C(N)N)NC(=O)[C@@H](Cc2ccccc2)NC(=O)[C@H](Cc2cnc[nH]2)NC1=O [Bremelanotide (Acetate)] | – | – | 4.60
C=CCN1C[C@H](C(=O)N(CCCN(C)C)C(=O)NCC)C[C@@H]2c3cccc4[nH]cc(c34)C[C@H]21 [Cabergoline] | – | – | 4.76
CC1(C)S[C@@H]2[C@H](NC(=O)C(C(=O)Oc3ccc4c(c3)CCC4)c3ccccc3)C(=O)N2[C@H]1C(=O)O (some centres unmarked) [Carindacillin (sodium)] | – | – | 4.84
O=NN(CCCl)C(=O)NCCCl [Carmustine] | – | – | 4.77
CC(=O)OCC1=C(C(=O)O)N2C(=O)[C@@H](NC(=O)CSC(=NC(C)C)NC(C)C)[C@H]2SC1 [Cefathiamidine] | – | – | 4.63
Cc1nnc(SCC2=C(C(=O)O)N3C(=O)[C@@H](NC(=O)Cn4cc(Cl)c(=O)c(Cl)c4)[C@H]3SC2)s1 [Cefazedone] | – | – | 4.59
CO/N=C(\C(=O)N[C@@H]1C(=O)N2C(C(=O)O)=C(CSc3nnnn3C)CS[C@H]12)c1csc(N)n1 [Cefmenoxime (hydrochloride)] | – | – | 4.60
NCc1ccccc1CC(=O)N[C@@H]1C(=O)N2C(C(=O)O)=C(CSc3nnnn3CC(=O)O)CS[C@H]12 [Ceforanide] | – | – | 4.97
COCC1=C(C(=O)OC(C)OC(=O)OC(C)C)N2C(=O)[C@@H](NC(=O)/C(=N\OC)c3csc(N)n3)[C@H]2SC1 (some centres unmarked) [Cefpodoxime Proxetil] | – | – | 4.46
NC(=O)c1cc[n+](CC2=C(C(=O)O)N3C(=O)[C@@H](NC(=O)[C@@H](c4ccccc4)S(=O)(=O)[O-])[C@H]3SC2)cc1 [Cefsulodin (sodium)] | – | – | 4.38
CC(C)(O/N=C(\C(=O)N[C@@H]1C(=O)N2C(C(=O)[O-])=C(C[n+]3ccccc3)CS[C@H]12)c1csc(N)n1)C(=O)O [Ceftazidime (pentahydrate)] | – | – | 4.68
CO/N=C(\C(=O)N[C@@H]1C(=O)N2C(C(=O)O)=C(CSC(=O)c3ccco3)CS[C@H]12)c1csc(N)n1 [Ceftiofur (sodium)] | – | – | 4.64
CC(C)(C)OC(=O)N[C@H]1CCCCC/C=C\[C@@H]2C[C@@]2(C(=O)NS(=O)(=O)C2CC2)NC(=O)[C@@H]2C[C@@H](OC(=O)N3Cc4cccc(F)c4C3)CN2C1=O [Danoprevir] | – | – | 4.71
CC[N+](C)(C)c1cccc(O)c1 [Edrophonium (chloride)] | – | – | 4.45
CC/C=C\C/C=C\C/C=C\C/C=C\C/C=C\CCCC(=O)O [Eicosapentaenoic Acid] | – | – | 4.80
N=C(N)NCCCC[C@@H]1NC(=O)CCSSC[C@@H](C(N)=O)NC(=O)[C@@H]2CCCN2C(=O)[C@H](Cc2c[nH]c3ccccc23)NC(=O)[C@H](CC(=O)O)NC(=O)CNC1=O [Eptifibatide] ([Mpa][hArg]GDWPC-NH2; disulfide 1-7) | – | – | 4.56
CCOc1ccc2nc3cc(N)ccc3c(N)c2c1 [Ethacridine (lactate monohydrate)] | – | – | 4.84
Cc1oc(=O)oc1COC(=O)C1=C([C@H]2CCCO2)S[C@@H]2[C@@H]([C@@H](C)O)C(=O)N12 [Faropenem daloxate] | – | – | 4.88

SMILES | pKi [1] | Relative inhibition (%), activity assay [2] [%] | pKi [3]
CCCCc1nc(C)c(CC(=S)N(C)C)c(=O)n1Cc1ccc(-c2ccccc2-c2nnn[nH]2)cc1 [Fimasartan] | – | – | 4.84
Cc1c(-c2ccccc2)oc2c(C(=O)OCCN3CCCCC3)cccc2c1=O [Flavoxate (hydrochloride)] | – | – | 4.47
Cc1ncc(NC(=O)c2ccc(CN3CCN(C)CC3)c(C(F)(F)F)c2)cc1Nc1nccc(-c2cccnc2)n1 [Flumatinib (mesylate)] | – | – | 4.91
CCC(=O)O[C@@H](O[P@](=O)(CCCCc1ccccc1)CC(=O)N1C[C@H](C2CCCCC2)C[C@H]1C(=O)O)C(C)C [Fosinopril (sodium)] | – | – | 4.94
CC(C)C[C@H](NC(=O)CNC(=O)c1cc(Cl)ccc1Cl)B1OC(=O)C(CC(=O)O)(CC(=O)O)O1 [Ixazomib citrate] | – | – | 4.60
CC(C)C[C@H](NC(=O)CNC(=O)c1cc(Cl)ccc1Cl)B(O)O [Ixazomib] | – | – | 4.48
Cc1ccc(NC(=O)C2(c3ccc4c(c3)OC(F)(F)O4)CC2)nc1-c1cccc(C(=O)O)c1 [Lumacaftor] | – | – | 5.00
Cc1ccc(NC(=O)c2ccc(CN3CCN(C)CC3)cc2)cc1Nc1nc(-c2cccnc2)cs1 [Masitinib] | – | – | 4.36
CCOC(=O)[C@@](C)(N)Cc1ccc(O)c(O)c1 [Methyldopate] | – | – | 4.53
CN(C)c1ccc2nc3ccc(=[N+](C)C)cc-3sc2c1 [Methylene blue (trihydrate)] | – | – | 4.72
O=C1c2c(O)ccc(O)c2C(=O)c2c(NCCNCCO)ccc(NCCNCCO)c21 [Mitoxantrone (dihydrochloride)] | – | – | 4.94
COC(=O)c1ccc2c(c1)NC(=O)/C2=C(\Nc1ccc(N(C)C(=O)CN2CCN(C)CC2)cc1)c1ccccc1 [Nintedanib esylate] | – | – | 4.56
NC(=O)c1cccc2cn(-c3ccc([C@@H]4CCCNC4)cc3)nc12 [Niraparib (tosylate)] | – | – | 4.79
NCCCC[C@@H]1NC(=O)[C@@H](Cc2c[nH]c3ccccc23)NC(=O)[C@H](c2ccccc2)NC(=O)[C@@H]2C[C@@H](OC(=O)NCCN)CN2C(=O)[C@H](Cc2ccccc2)NC(=O)[C@H](Cc2ccc(OCc3ccccc3)cc2)NC1=O [Pasireotide (acetate)] (cyclo([Hyp]([CO-Ethylenediamine])[Phg][dW]KY(Bn)F)) | – | – | 4.70
Nc1ccc2cc3ccc(N)cc3nc2c1 [Proflavine (hemisulfate)] | – | – | 4.57
C=CC[N+]1([C@H]2C[C@H]3[C@@H]4CC[C@H]5C[C@H](OC(C)=O)[C@@H](N6CCCCC6)C[C@]5(C)[C@H]4CC[C@]3(C)[C@H]2OC(=O)CC)CCCCC1 [Rapacuronium bromide] | – | – | 4.85
CO[C@H]1/C=C/O[C@@]2(C)Oc3c(C)c(O)c4c(O)c(c(/C=N/N5CCN(C6CCCC6)CC5)c(O)c4c3C2=O)NC(=O)/C(C)=C\C=C\[C@H](C)[C@H](O)[C@@H](C)[C@@H](O)[C@@H](C)[C@H](OC(C)=O)[C@@H]1C [Rifapentine] | – | – | 4.92
CNCc1ccc(-c2[nH]c3cc(F)cc4c3c2CCNC4=O)cc1 [Rucaparib] | – | – | 4.35
CC(C)=CCOc1ccc(/C=C/C(=O)c2ccc(OCC=C(C)C)cc2OCC(=O)O)cc1 [Sofalcone] | – | – | 4.80
COc1cc(C)c2c(Oc3cccc(C(F)(F)F)c3)c(OC)cc(NC(C)CCCN)c2n1 (centres unmarked) [Tafenoquine (Succinate)] | – | – | 4.79
CN1Cc2c(Cl)cc(Cl)cc2[C@H](c2cccc(S(=O)(=O)NCCOCCOCCNC(=O)NCCCCNC(=O)NCCOCCOCCNS(=O)(=O)c3cccc([C@@H]4CN(C)Cc5c(Cl)cc(Cl)cc54)c3)c2)C1 [Tenapanor] | – | – | 4.60
COc1cc(NCc2ccc3nc(N)nc(N)c3c2C)cc(OC)c1OC [Trimetrexate] | – | – | 4.57
CCCc1nc(C)c2c(=O)[nH]c(-c3cc(S(=O)(=O)N4CCN(CC)CC4)ccc3OCC)nn12 [Vardenafil (hydrochloride)] | – | – | 4.40
CC(=O)O[C@H]1C[C@@H]2CC[C@@H]3[C@H](CC[C@@]4(C)[C@H]3C[C@H]([N+]3(C)CCCCC3)[C@@H]4OC(C)=O)[C@@]2(C)C[C@@H]1N1CCCCC1 [Vecuronium (bromide)] | – | – | 4.59
CC[C@@H]1C(=O)N(C)c2cnc(Nc3ccc(C(=O)N[C@H]4CC[C@H](N5CCN(CC6CC6)CC5)CC4)cc3OC)nc2N1C(C)C [Volasertib] | – | – | 4.96
COc1cc(C(=O)NS(=O)(=O)c2ccccc2C)ccc1Cc1cn(C)c2ccc(NC(=O)OC3CCCC3)cc12 [Zafirlukast] | – | – | 4.87
